Non-standard residues stand in square brackets, D forms with d. Residues, ends and D or L forms follow the SMILES beside them. No end group written: not given here.
What was measured:
[1] = system: anti-KLH antibody production; assay: Suppressive effect on anti-KLH antibody production in mice (ELISA of serum IgG); assay type: in vivo, Balb/c mice; details: for Anti-KLH IgG antibody titer (unit ± SD): Example 3, 100 µg subcutaneously day 5 and day 3 prior to KLH, blood day 21 after antigen; for Anti-KLH IgG antibody titer (unit ± SD) / Anti-KLH antibody titer (unit ± SD): 8 mice per group; for antibody production (anti-KLH) / Anti-KLH antibody titer (unit ± SD): Example 7; for Anti-KLH antibody titer (unit ± SD): in a similar manner to Example 3
Description: Day 5 and day 3 prior to the antigen administration, 100 µg of each Peptide (I) to (VI) of the present invention composed of 9 amino acid residues indicated by Sequence ID No. 1 in the Sequence Listing were dissolved in 200 µl of physiological saline. The resulting solution was subcutaneously administered to 9-week-old Balb/c mice. As a control, a non-administered group to which the same amount of physiological saline was administered was employed. In 200 µl of physiological saline, 25 µg of KLH were dissolved as an antigen and the resulting solution was subcutaneously administered. The blood was collected on day 21 after antigen administration and an antibody titer was measured by the method which is described below.
KLH was diluted to 10 µg/ml with a phosphate buffered physiological saline (PBS). Fifty µl portions of the resulting solution were poured into a 96-well microplate and the plate was allowed to stand at 4iC overnight. After the microplate was washed three times with 0.05% Tween-20-containing PBS (T-PBS), 200 µl portions of 0.5% casein tris-buffered physiological saline (casein TBS) were poured into wells, respectively. […] The microplate was washed three times with T-PBS and 50 µl portions of the mouse serum diluted to 1/200 with casein TBS were poured into the wells, followed by reaction for one hour (primary reaction).
The resulting microplate was washed three times with T-PBS, to which 50 µl portions of an anti-mouse IgG-peroxidase-labeled antibody (TAGO Co.) diluted to 1/4000 with casein TBS were poured. The reaction was effected at room temperature for one hour (secondary reaction). After the completion of the secondary reaction, the plate was washed three times again. Fifty µl portions of a substrate liquid/chromogen (chromogen substrate: Behringwerke AG) were poured into wells, respectively, followed by reaction at room temperature for 30 minutes. After the completion of the reaction, 0.5N diluted sulfuric acid was added to terminate the reaction and an absorbance at 450 nm was measured by a colorimeter ("BEP-II", product of Behringwerke AG/Germany) with the absorbance at 650 nm as a control.
In a similar manner to Example 3, suppressive effects of Peptides (I), (VII) to (XV) on anti-KLH antibody production in mice were studied.

[2] = system: anti-OVA antibody production; assay: Suppressive effect on anti-OVA antibody production in mice (ELISA of serum IgG); assay type: in vivo, Balb/c mice; parameters: Anti OVA Ig-G antibody titer (unit): dose or concentration left out as unconfirmed; details: for Anti-OVA antibody titer: in a similar manner to Example 2
Description: Day 5 and day 3 prior to the antigen administration, Peptide (I) composed of 9 amino acid residues as indicated by Sequence ID No. 1 in the Sequence Listing of the present invention and a synthetic peptide 15 composed of 15 amino acid residues derived from clone 17.2 TcR, which peptide had been reported by Mohapatra et al. as described above, 100 g each, were dissolved in 200 of physiological saline and each solution thus obtained was subcutaneously administered to 9-week-old Balb/c mice. As a control, a non-administered group to which the same amount of physiological saline was administered was employed. In 200 I of physiological saline, 100 g of OVA (Sigma Chemical Co.) were dissolved, followed by subcutaneous administration. Blood was collected on day 21 after antigen administration and an antibody titer was measured by the method described below.
OVA was diluted to 10 µg/ml with phosphate buffered saline (PBS) and 50 I portions of the solution were poured in a 96-well microplate. The coating operation was conducted overnight at […]. The microplate was then washed three times with a 0.05% Tween-20-containing PBS (T-PBS). 200 portions of 0.5% casein-containing tris buffered physiological saline (casein TBS) were poured in each well and the microplate was allowed to stand at room temperature for one hour. The microplate was then washed three times with T-PBS. After the serum of the blood collected from the mice was diluted to 1/200 with 0.5% casein TBS, 50 I portions of the diluted serum were poured in each well and the plate was allowed to stand for one hour (primary reaction).
After the completion of the primary reaction, the microplate was washed three times with T-PBS. Fifty I portions of anti-mouse IgG-peroxidase-labeled antibody (TAGO Co.) diluted to 1/4000 with 0.5% casein TBS were poured in each well, followed by reaction at room temperature for one hour (secondary reaction). After the completion of the secondary reaction, the plate was washed three times again. Fifty I portions of a substrate liquid/chromogen (chromogen substrate: Behringwerke AG) were poured in each well, followed by reaction at room temperature for 30 minutes. After the completion of the reaction, 0.5N diluted sulfuric acid was added to terminate the reaction and an absorbance at 450 nm was measured by a colorimeter ("BEP-II", product of Behringwerke AG/Germany) with an absorbance at 650 nm as a control.
In a similar manner to Example 2, the suppressive effects of Peptides (I), (VII) to (XIV) on the anti-OVA antibody production in mice were measured.

EAE model mice = assay: Onset suppressive effect on EAE model mice (clinical score); assay type: in vivo, SJL mouse; parameters: key to average score ± SD: EAE onset score per Pettinelli et al. 1982 criteria; details: for average score ± SD: score 0-6
Description: As an antigen, guinea pig spinal chord homogenate was employed. The guinea pig spinal chord homogenate was diluted with PBS to be 6.6 mg/ml, followed by the addition of the equivalent amount of Freund ? s complete adjuvant. The resulting mixture was formed into an emulsion by an ultrasonic sonicator. The resulting emulsion was administered to two areas under the lateral skin in a total amount of 300 µl. Day 5 and day 3 prior to antigen administration, and 5 days a week for 4 weeks after antigen administration, the solution of Peptide (I) dissolved in 100 µl physiological saline was subcutaneously administered to a 14-week old SJL mouse. Incidentally, in order to increase an onset ratio, […] of pertussis toxin (PTX) were intravenously administered as an enhancer on the day of antigen administration and two days after antigen administration. Observation of the onset was performed from day 14 to day 28 after primary antigen administration. The onset was scored based on the following standard criteria [Pettinelli, C. B., Fritz, D. E., and McFarlin, D. E. J. Immunl., 129, No. 3, 1024-1028 (1982)]. In Table 3, values of average score + standard deviation (SD) in each administration group on day 22, day 25 and day 28 after primary antigen administration are shown.

[3] = compared with Peptide (I) administered group
[4] = Example 8, compared with Peptide (I) administered group
[5] = compared with the non-administered group and Peptide (I) administered group
[6] = Example 8, compared with the non-administered group and Peptide (I) administered group

Molecule | Anti-KLH IgG antibody titer (unit ± SD) [1] [unit] | antibody production (anti-KLH) [1, 3] | Anti-KLH antibody titer (unit ± SD) [1] [unit] | Anti-OVA antibody titer ([2]; Example 8, 8 mice per group) | also measured
CC(C)C[C@@H](NC(=O)[C@@H](CCCCN)NC(=O)[C@@H](C)N)C(=O)N[C@@H](C(=O)N[C@H](Cc1ccccc1)C(=O)NCC(=O)N[C@H](CCCCN)C(=O)NCC(=O)N[C@@H](C(=O)O)[C@H](C)O)[C@H](C)O [Peptide (II)] (H-[dA][dK][dL][dT][dF]G[dK]G[dT]-OH) | 48.4 ± 13.1 |  |  |  | 
CC(=O)N[C@H](C)C(=O)N[C@H](CCCCN)C(=O)N[C@H](CC(C)C)C(=O)N[C@@H](C(=O)N[C@H](Cc1ccccc1)C(=O)NCC(=O)N[C@H](CCCCN)C(=O)NCC(=O)N[C@@H](C(=O)O)[C@H](C)O)[C@H](C)O [Peptide (V)] (Ac-[dA][dK][dL][dT][dF]G[dK]G[dT]-OH) | 37.7 ± 17.7 |  |  |  | 
CC(=O)N[C@H](C)C(=O)N[C@H](CCCCN)C(=O)N[C@H](CC(C)C)C(=O)N[C@@H](C(=O)N[C@H](Cc1ccccc1)C(=O)NCC(=O)N[C@H](CCCCN)C(=O)NCC(=O)N[C@@H](C(N)=O)[C@H](C)O)[C@H](C)O [Peptide (VI)] (Ac-[dA][dK][dL][dT][dF]G[dK]G[dT]-NH2) | 29.5 ± 19.5 |  |  |  | 
AALTFGKG [Peptide (VIII)] |  | not suppressed | 44.9 ± 18.1 | 65.3 ± 34.7 | 
AKATFGKG [Peptide (XIII)] |  | not suppressed | 68.9 ± 25.1 | 193.5 ± 155.9 | antibody production (anti-OVA) [2, 4]: not suppressed
AKLAFGKG [Peptide (IX)] |  |  | 33.9 ± 13.7 | 10.4 ± 6.3 | antibody production (anti-KLH) [1, 5]: significantly suppressed; antibody production (anti-OVA) [2, 6]: significantly suppressed
AKLTAGKG [Peptide (XIV)] |  | not suppressed | 59.9 ± 32.8 | 90.9 ± 89.5 | antibody production (anti-OVA) [2, 4]: not suppressed
AKLTFAKG [Peptide (X)] |  |  | 26.5 ± 22.0 | 49.8 ± 28.4 | antibody production (anti-KLH) [1, 5]: significantly suppressed
AKLTFGAG [Peptide (XI)] |  |  | 19.9 ± 15.9 | 15.3 ± 14.3 | antibody production (anti-KLH) [1, 5]: significantly suppressed; antibody production (anti-OVA) [2, 6]: significantly suppressed
AKLTFGKA [Peptide (XII)] |  | not suppressed | 49.5 ± 40.1 | 50.9 ± 26.7 | 
AKLTFGKG [Peptide (VII)] |  |  | 25.9 ± 15.4 | 20.9 ± 21.4 | antibody production (anti-KLH) [1, 5]: significantly suppressed; antibody production (anti-OVA) [2, 6]: significantly suppressed
AKLTFGKGT [Peptide (I)] | 78.7 ± 28.3 |  | 39.5 ± 16.1 | 23.8 ± 12.4 | antibody production (anti-OVA) ([2]; Example 2, compared with the non-administered group): significantly suppressed; Anti OVA Ig-G antibody titer (unit) ([2]; Example 2, subcutaneously day 5 and day 3 prior to OVA, blood day 21 after antigen, 8 mice per group, mean ± spread): 8.8 ± 10.8 unit; average score ± SD (EAE model mice; 1 µg/body subcutaneously, Day 22 after primary antigen administration): 1.6 ± 1.8; average score ± SD (EAE model mice; 1 µg/body subcutaneously, Day 25 after primary antigen administration): 0.9 ± 1.1; average score ± SD (EAE model mice; 1 µg/body subcutaneously, Day 28 after primary antigen administration): 1.8 ± 1.9; onset of EAE (EAE model mice; 5 µg/body group compared with the physiological saline group): suppressed on day 25 and day 28 with a significant difference of 5%; average score ± SD (EAE model mice; 5 µg/body subcutaneously, Day 22 after primary antigen administration): 0.4 ± 0.7; average score ± SD (EAE model mice; 5 µg/body subcutaneously, Day 25 after primary antigen administration): 1.0 ± 1.1; average score ± SD (EAE model mice; 5 µg/body subcutaneously, Day 28 after primary antigen administration): 0.7 ± 0.8; onset of EAE (EAE model mice; 25 µg/body group compared with the physiological saline group, from day 22): suppressed from day 22 with a significant difference of 5%; onset of EAE (EAE model mice; 25 µg/body group compared with the physiological saline group, from day 25): suppressed with a significant difference of 1%; average score ± SD (EAE model mice; 25 µg/body subcutaneously, Day 22 after primary antigen administration): 0.3 ± 0.4; average score ± SD (EAE model mice; 25 µg/body subcutaneously, Day 25 after primary antigen administration): 0.1 ± 0.3; average score ± SD (EAE model mice; 25 µg/body subcutaneously, Day 28 after primary antigen administration): 0.0 ± 0.0; onset of EAE (EAE model mice; administration of Peptide (I), overall statement): suppressed
Ac-AKLTFGKGT [Peptide (III)] | 50.1 ± 25.8 |  |  |  | 
KLTFGKG [Peptide (XV)] |  | not suppressed | 86.4 ± 27.8 |  | 

Source: patent EP0821003B1, “PEPTIDES AND REMEDY FOR AUTOIMMUNE DISEASES COMPRISING THE SAME” (Aventis Pharma Ltd., priority 1995, dated 2003)
